# Assay results taken from patent US20060276464A1, “Diarylsulfone sulfonamides and use thereof” (Wyeth, priority 2005, published 2006).
# Read-outs that look alike come from different tables or passages of the source.
# Target: T1, SFRP-1 (Homo sapiens, UniProt Q8N474)
# T1 sequence (Q8N474 32-314): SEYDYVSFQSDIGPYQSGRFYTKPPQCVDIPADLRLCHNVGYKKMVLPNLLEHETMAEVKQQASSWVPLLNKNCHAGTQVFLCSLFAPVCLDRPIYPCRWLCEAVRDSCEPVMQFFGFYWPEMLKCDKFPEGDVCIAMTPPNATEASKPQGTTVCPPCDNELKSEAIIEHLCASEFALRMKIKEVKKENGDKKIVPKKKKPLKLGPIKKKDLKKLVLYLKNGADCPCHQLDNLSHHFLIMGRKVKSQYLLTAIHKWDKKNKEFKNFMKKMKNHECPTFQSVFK
# Test: Cell-based assay for in vitro measurement of SFRP-1/SARP2 antagonist activity (U2OS cells co-transfected with 16x TCF-tk-Luciferase reporter, Wnt and hSFRP-1);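 also: U2OS cells co-transfected with a TCF-tk luciferase reporter, a Wnt vector, hSFRP-1 or empty vector and CMV-βgal, luciferase luminescence read in cell lysates alongside βgal activity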
# Conditions: for fold induction at 15 µM / fold induction at 30 µM / fold induction at 10 µM / fold induction at 20 µM: U2OS; for fold induction at 10 µM: read-out: Fold Induction with SFRP-1, U2OS cells, single dose 10 μM, luciferase reporter, fold induction over SFRP-1 control
# [1] = read-out: Fold Induction with SFRP-1, Conc 15 μM, with SFRP-1, fold induction over SFRP-1 control, single dose
# [2] = read-out: Fold Induction without SFRP-1, Conc 15 μM, without SFRP-1, single dose
# [3] = read-out: Fold Induction with SFRP-1, Conc 30 μM, with SFRP-1, fold induction over SFRP-1 control, single dose
# [4] = read-out: Fold Induction without SFRP-1, Conc 30 μM, without SFRP-1, single dose
fold induction at 15 µM [1],fold induction at 15 µM [2],SMILES,also measured
1,0.7,"CCOc1ccc(CCNS(=O)(=O)c2cccc(S(=O)(=O)c3ccccc3)c2)cc1 [Example 80, N-[2-(4-ethoxyphenyl)ethyl]-3-(phenylsulfonyl)benzenesulfonamide]",
1.6,0.9,"O=S(=O)(NCCc1ccccn1)c1cc(S(=O)(=O)c2ccccc2)ccc1C1CCCCC1 [Example 459, 2-cyclohexyl-5-(phenylsulfonyl)-N-(2-pyridin-2-ylethyl)benzenesulfonamide]",
0.9,0.8,"CCS(=O)(=O)c1cccc(S(=O)(=O)c2ccc(C)c(S(=O)(=O)NCCc3ccccn3)c2)c1 [Example 429, 5-{[3-(ethylsulfonyl)phenyl]sulfonyl}-2-methyl-N-(2-pyridin-2-ylethyl)benzenesulfonamide]",
2.1,1.3,"CCc1ccc(S(=O)(=O)c2ccccc2)cc1S(=O)(=O)NCCc1cccc(F)c1 [Example 146, 2-ethyl-N-[2-(3-fluorophenyl)ethyl]-5-(phenylsulfonyl)benzenesulfonamide]",
1.4,1.4,"COc1ccc(S(=O)(=O)c2ccccc2)cc1S(=O)(=O)NCCc1ccccc1F [Example 156, N-[2-(2-fluorophenyl)ethyl]-2-methoxy-5-(phenylsulfonyl)benzenesulfonamide]",
1,0.9,"O=S(=O)(NCCc1cccc(F)c1)c1cccc(S(=O)(=O)c2ccccc2)c1 [Example 81, N-[2-(3-fluorophenyl)ethyl]-3-(phenylsulfonyl)benzenesulfonamide]",
2.8,1,"O=S(=O)(NCCCn1ccnc1)c1cc(S(=O)(=O)c2ccccc2)ccc1Cl [Example 336, 2-chloro-N-[3-(1H-imidazol-1-yl)propyl]-5-(phenylsulfonyl)benzenesulfonamide]",
1.2,1,"O=S(=O)(NCCc1ccccc1F)c1cccc(S(=O)(=O)c2ccccc2)c1 [Example 82, N-[2-(2-fluorophenyl)ethyl]-3-(phenylsulfonyl)benzenesulfonamide]",
1.6,1.1,"COc1cccc(CCNS(=O)(=O)c2cc(S(=O)(=O)c3ccccc3)ccc2OC)c1 [Example 152, 2-methoxy-N-[2-(3-methoxyphenyl)ethyl]-5-(phenylsulfonyl)benzenesulfonamide]",

# The next lines start with the molecule.
SMILES,fold induction at 15 µM [1],fold induction at 15 µM [2],also measured
"CCc1ccc(S(=O)(=O)c2ccccc2)cc1S(=O)(=O)NCCc1ccc(OC)c(OC)c1 [Example 144, N-[2-(3,4-dimethoxyphenyl)ethyl]-2-ethyl-5-(phenylsulfonyl)benzenesulfonamide]",3,1.1,
"Cc1ccc(S(=O)(=O)c2ccc3ccccc3c2)cc1S(=O)(=O)NCCCn1ccnc1 [Example 339, N-[3-(1H-imidazol-1-yl)propyl]-2-methyl-5-(2-naphthylsulfonyl)benzenesulfonamide]",2.6,1.1,
"CNc1ccc(S(=O)(=O)c2ccc(C(C)C)c(S(=O)(=O)NCCn3ccnc3)c2)cc1 [Example 451, N-[2-(1H-imidazol-1-yl)ethyl]-2-isopropyl-5-{[4-(methylamino)phenyl]sulfonyl)benzenesulfonamide]",3.7,1.1,
"Cc1ccc(S(=O)(=O)c2ccccc2)cc1S(=O)(=O)NCCc1ccccc1 [Example 1, 2-Methyl-N-(2-phenylethyl)-5-(phenylsulfonyl)benzene sulfonamide]",,,fold induction at 30 µM [3]: 1.5; fold induction at 30 µM [4]: 0.6
"Cc1ccc(S(=O)(=O)c2ccc(F)cc2)cc1S(=O)(=O)NCCc1ccccc1Cl [Example 3, N-[2-(2-chlorophenyl)ethyl]-5-[(4-fluorophenyl)sulfonyl]-2-methylbenzenesulfonamide]",,,fold induction at 30 µM [3]: 1.1; fold induction at 30 µM [4]: 0.4
"Cc1cc(C)c(S(=O)(=O)c2ccccc2)cc1S(=O)(=O)NCC1CCOCC1 [Example 385, 2,4-dimethyl-5-(phenylsulfonyl)-N-(tetrahydro-2H-pyran-4-ylmethyl)benzenesulfonamide]",2.7,1,
"Cc1ccc(S(=O)(=O)c2ccc(F)cc2)cc1S(=O)(=O)NCC(O)c1ccccc1 (stereo not drawn) [Example 387, 5-[(4-fluorophenyl)sulfonyl]-N-(2-hydroxy-2-phenylethyl)-2-methylbenzenesulfonamide]",1.7,1.4,
"COCCNS(=O)(=O)c1cc(S(=O)(=O)c2ccccc2)ccc1OC [Example 240, 2-methoxy-N-(2-methoxyethyl)-5-(phenylsulfonyl)benzenesulfonamide]",1.4,0.9,
"Cc1ccc2c(c1)CCCN2C(=O)CCNS(=O)(=O)c1cc(S(=O)(=O)c2ccccc2)ccc1C [Example 669, 2-methyl-N-[3-(6-methyl-3,4-dihydroquinolin-1(2H)-yl)-3-oxopropyl]-5-(phenylsulfonyl)benzenesulfonamide]",,,fold induction at 10 µM: 0.9
"Cc1ccc(S(=O)(=O)c2ccccc2)cc1S(=O)(=O)NCCC(=O)NC(C)(C)C [Example 666, N-(tert-butyl)-N^3-{[2-methyl-5-(phenylsulfonyl)phenyl]sulfonyl}-β-alaninamide]",,,EC50: 27.2 µM; fold induction at 10 µM: 1.5
"Cc1ccc(S(=O)(=O)c2ccc(Cl)cc2)cc1S(=O)(=O)NC1Cc2ccccc2C1 [Example 255, 5-[(4-chlorophenyl)sulfonyl]-N-2,3-dihydro-1H-inden-2-yl-2-methylbenzenesulfonamide]",,,"fold induction at 20 µM (read-out: Fold Induction with SFRP-1, Conc 20 μM, with SFRP-1, fold induction over SFRP-1 control, single dose): 2.6; fold induction at 20 µM (read-out: Fold Induction without SFRP-1, Conc 20 μM, without SFRP-1, single dose): 1.1"
"O=S(=O)(NCc1ccc(Br)cc1)c1cc(S(=O)(=O)c2ccccc2)ccc1C(F)(F)F [Example 964, N-(4-bromobenzyl)-5-(phenylsulfonyl)-2-(trifluoromethyl)benzenesulfonamide]",,,fold induction at 10 µM: 1.2
"Cc1cc(S(=O)(=O)c2ccccc2)cc(S(=O)(=O)NC2CCN(C(=O)OC(C)(C)C)CC2)c1C [Example 910, tert-butyl 4-({[2,3-dimethyl-5-(phenylsulfonyl)phenyl]sulfonyl}amino)piperidine-1-carboxylate]",,,fold induction at 10 µM: 1.2
"CCOc1ccc(CCNS(=O)(=O)c2cc(S(=O)(=O)c3ccccc3)ccc2C)cc1 [Example 51, N-[2-(4-ethoxyphenyl)ethyl]-2-methyl-5-(phenylsulfonyl)benzenesulfonamide]",,,fold induction at 30 µM [3]: 2.6; fold induction at 30 µM [4]: 0.9
"COC(=O)C(C)(C)NS(=O)(=O)c1cc(S(=O)(=O)c2ccccc2)ccc1Cl [Example 654, methyl N-{[2-chloro-5-(phenylsulfonyl)phenyl]sulfonyl}-2-methylalaninate]",,,"fold induction at 15 µM (read-out: Fold Induction with SFRP-1, Conc 15 μM, single dose, luciferase reporter, fold induction over SFRP-1 control, cells with SFRP-1): 1; fold induction at 15 µM (read-out: Fold Induction without SFRP-1, Conc 15 μM, single dose, luciferase reporter, cells without SFRP-1 (specificity control)): 1"
"Cc1ccc(S(=O)(=O)c2ccccc2)cc1S(=O)(=O)NCCN1CCOCC1 [Example 211, 2-methyl-N-(2-morpholin-4-ylethyl)-5-(phenylsulfonyl)benzenesulfonamide]",2.3,0.7,
"Cc1ccc(S(=O)(=O)c2ccc(C)c(S(=O)(=O)NCCc3ccccc3F)c2)cc1 [Example 138, N-[2-(2-fluorophenyl)ethyl]-2-methyl-5-[(4-methylphenyl)sulfonyl]benzenesulfonamide]",2.7,0.9,fold induction at 30 µM [3]: 1.1; fold induction at 30 µM [4]: 0.5
